# From patent publication US5120735A, “Antifungal composition” (Kaken Pharmaceutical Co., Ltd., priority 1987, dated 1992)
# Assays:
# [1] = tested on: Candida albicans MTU 12021; experiment: Checker board method, combined use of Compound 1 with miconazole or ketoconazole; assay type: cell-based; also: key: +: Growth observed; -: No growth observed
# Procedure: (§1) 1 ml of each drug solution diluted twice was introduced into a sterilized Petri dish, and 8 ml of Sabouraud agar medium was added to prepare a agar plate. Thus, a series of agar plates for the combinations having various concentrations were prepared.
# (§2) Candida albicans MTU 12021 strain cultured on a Sabouraud agar medium for 24 hours, was suspended in a saline, and a cells suspension having a concentration of 2×10^6 spores/ml was prepared by counting the number of spores by a hemacytometer. Then, 50 μl of the cells suspension was inoculated to the above agar plates by means of a microplanter (manufactured by Sakuma Seisakusho). The inoculated agar plates were cultured at 37° C. for 48 hours, whereupon the presence or absence of the growth of the strain was examined.
# (§3) Culture medium: Sabouraud agar medium
# (§4) Culturing condition: 37° C. for 48 hours
# (§5) Strain used: Candida albicans MTU 12021
# [2] = tested on: Candida albicans MTU 12021; experiment: Influence of combined use of Compound 1 with miconazole over the growth curve; assay type: cell-based; settings: 24 and 48 hours, FIG. 1
# Procedure: Upon expiration of 24 hours and 48 hours, 0.1 ml of the culture medium was sampled and spread on a Sabouraud agar plate containing 0.5% of yeast extract, followed by culturing at 37° C. for 48 hours. Then, the number of colonies were counted to determine the number of survived fungi.
# [3] = tested on: Candida albicans MTU 12021; experiment: Agar dilution MIC, single and combined use; assay type: cell-based; settings: Candida albicans, MTU12021; single use; Sabouraud agar, 37° C., 48 hours; read-out: Minimum Inhibitory Concentration (MIC)
# Procedure: (1) The effects of the combined use of Compound 1 with various imidazole antifungal agents against Candida albicans MTU 12021 strain were examined as follows. […] Then, distilled water containing 0.1% by weight of Tween 80 was added thereto to obtain drug solutions having a concentration of from 1 to 1,000 μg/ml.
# as §1, §2, §3, §4, §5
# [4] = tested on: Candida albicans MTU 12021; experiment: Disk method (growth inhibition ring); assay type: cell-based
# Procedure: (3) The effects of the combined use of Compound 1 with miconazole or ketoconazole were examined by a disk method.
# Candida albicans MTU 12021 stain was mixed with a Sabouraud agar medium to have a concentration of 5×10^4 spores/ml, and 10 ml thereof was poured into a sterilized Petri dish to obtain an inoculated agar plate.
# 50 mg of each of Compound 1, miconazole and ketoconazole was impregnated to a disk (Toyo Filter paper of 8 mm in diameter), and the disk was placed on the inoculated agar plate, followed by culturing at 37° C. for 96 hours, whereupon the synergistic effects were evaluated based on the growth inhibition ring thereby appeared.
# ICR male mice = experiment: Acute toxicity, oral, mice; assay type: in vivo; settings: up to 5,000 mg/kg, ICR male mice of 5 weeks old
# Text: To examine the acute toxicity of the arylmethylamine antifungal agents used in the composition of the present invention, Compounds 1 and 2 were selected, and they were, respectively, suspended in 0.5% methyl cellulose and orally administered to ICR male mice of 5 weeks old (body weight: 26-28 g) at a dose corresponding to the body weight.
# [5] = tested on: Candida albicans MTU 12021; experiment: Agar dilution MIC, single and combined use; assay type: cell-based; settings: Compound 1 combined with non-azole agents; Table 4
smiles,measurement,setting,value
"CN(Cc1ccc(C(C)(C)C)cc1)Cc1cccc2ccccc12 [Compound 1, N-4-tert-butylbenzyl-N-methyl-1-naphthalenemethylamine]",Growth,"[1]; Compound 1 0.39 μg/ml, ketoconazole 0",+
same,Growth,"[1]; Compound 1 0.78 μg/ml, ketoconazole 0",+
same,Growth,"[1]; Compound 1 1.56 μg/ml, ketoconazole 0",+
same,Growth,"[1]; Compound 1 3.13 μg/ml, ketoconazole 0",+
same,Growth,"[1]; Compound 1 3.13 μg/ml, miconazole 0",+
same,Growth,"[1]; Compound 1 12.5 μg/ml, ketoconazole 0",+
same,Growth,"[1]; Compound 1 12.5 μg/ml, miconazole 0",+
same,Growth,"[1]; Compound 1 25 μg/ml, ketoconazole 0",+
same,Growth,"[1]; Compound 1 25 μg/ml, miconazole 0",+
same,Growth,"[1]; Compound 1 50 μg/ml, ketoconazole 0",+
same,Growth,"[1]; Compound 1 50 μg/ml, miconazole 0",+
same,Growth,"[1]; Compound 1 100 μg/ml, ketoconazole 0",+
same,Growth,"[1]; Compound 1 100 μg/ml, miconazole 0",+
same,Growth,[1]; Compound 1 0.39 + ketoconazole 0.1 μg/ml,+
same,Growth,[1]; Compound 1 0.39 + ketoconazole 0.2 μg/ml,+
same,Growth,[1]; Compound 1 0.39 + ketoconazole 0.39 μg/ml,+
same,Growth,[1]; Compound 1 0.39 + ketoconazole 0.78 μg/ml,+
same,Growth,[1]; Compound 1 0.39 + ketoconazole 1.56 μg/ml,+
same,Growth,[1]; Compound 1 0.39 + ketoconazole 3.13 μg/ml,+
same,Growth,[1]; Compound 1 0.39 + ketoconazole 12.5 μg/ml,+
same,Growth,[1]; Compound 1 0.39 + ketoconazole 25 μg/ml,-
same,Growth,[1]; Compound 1 0.39 + ketoconazole 50 μg/ml,-
same,Growth,[1]; Compound 1 0.39 + ketoconazole 100 μg/ml,-
same,Growth,[1]; Compound 1 0.78 + ketoconazole 0.1 μg/ml,+
same,Growth,[1]; Compound 1 0.78 + ketoconazole 25 μg/ml,-
same,Growth,[1]; Compound 1 0.78 + ketoconazole 50 μg/ml,-
same,Growth,[1]; Compound 1 0.78 + ketoconazole 100 μg/ml,-
same,Growth,[1]; Compound 1 1.56 + ketoconazole 0.1 μg/ml,+
same,Growth,[1]; Compound 1 1.56 + ketoconazole 25 μg/ml,-
same,Growth,[1]; Compound 1 1.56 + ketoconazole 50 μg/ml,-
same,Growth,[1]; Compound 1 1.56 + ketoconazole 100 μg/ml,-
same,Growth,[1]; Compound 1 3.13 + ketoconazole 0.1 μg/ml,+
same,Growth,[1]; Compound 1 3.13 + ketoconazole 25 μg/ml,-
same,Growth,[1]; Compound 1 3.13 + ketoconazole 50 μg/ml,-
same,Growth,[1]; Compound 1 3.13 + ketoconazole 100 μg/ml,-
same,Growth,[1]; Compound 1 3.13 + miconazole 0.39 μg/ml,+
same,Growth,[1]; Compound 1 3.13 + miconazole 0.78 μg/ml,+
same,Growth,[1]; Compound 1 3.13 + miconazole 1.56 μg/ml,+
same,Growth,[1]; Compound 1 3.13 + miconazole 3.13 μg/ml,+
same,Growth,[1]; Compound 1 3.13 + miconazole 12.5 μg/ml,+
same,Growth,[1]; Compound 1 3.13 + miconazole 25 μg/ml,+
same,Growth,[1]; Compound 1 3.13 + miconazole 50 μg/ml,-
same,Growth,[1]; Compound 1 3.13 + miconazole 100 μg/ml,-
same,Growth,[1]; Compound 1 6.25 + ketoconazole 0.1 μg/ml,+
same,Growth,[1]; Compound 1 6.25 + ketoconazole 25 μg/ml,-
same,Growth,[1]; Compound 1 6.25 + ketoconazole 50 μg/ml,-
same,Growth,[1]; Compound 1 6.25 + ketoconazole 100 μg/ml,-
same,Growth,[1]; Compound 1 6.25 + miconazole 0.39 μg/ml,+
same,Growth,[1]; Compound 1 6.25 + miconazole 0.78 μg/ml,+
same,Growth,[1]; Compound 1 6.25 + miconazole 1.56 μg/ml,+
same,Growth,[1]; Compound 1 6.25 + miconazole 3.13 μg/ml,+
same,Growth,[1]; Compound 1 6.25 + miconazole 12.5 μg/ml,+
same,Growth,[1]; Compound 1 6.25 + miconazole 25 μg/ml,+
same,Growth,[1]; Compound 1 6.25 + miconazole 50 μg/ml,-
same,Growth,[1]; Compound 1 6.25 + miconazole 100 μg/ml,-
same,Growth,[1]; Compound 1 12.5 + ketoconazole 0.1 μg/ml,+
same,Growth,[1]; Compound 1 12.5 + ketoconazole 25 μg/ml,-
same,Growth,[1]; Compound 1 12.5 + ketoconazole 50 μg/ml,-
same,Growth,[1]; Compound 1 12.5 + ketoconazole 100 μg/ml,-
same,Growth,[1]; Compound 1 12.5 + miconazole 0.39 μg/ml,+
same,Growth,[1]; Compound 1 12.5 + miconazole 0.78 μg/ml,+
same,Growth,[1]; Compound 1 12.5 + miconazole 50 μg/ml,-
same,Growth,[1]; Compound 1 12.5 + miconazole 100 μg/ml,-
same,Growth,[1]; Compound 1 25 + ketoconazole 0.1 μg/ml,+
same,Growth,[1]; Compound 1 25 + ketoconazole 25 μg/ml,-
same,Growth,[1]; Compound 1 25 + ketoconazole 50 μg/ml,-
same,Growth,[1]; Compound 1 25 + ketoconazole 100 μg/ml,-
same,Growth,[1]; Compound 1 25 + miconazole 0.39 μg/ml,+
same,Growth,[1]; Compound 1 25 + miconazole 0.78 μg/ml,+
same,Growth,[1]; Compound 1 25 + miconazole 50 μg/ml,-
same,Growth,[1]; Compound 1 25 + miconazole 100 μg/ml,-
same,Growth,[1]; Compound 1 50 + ketoconazole 0.1 μg/ml,+
same,Growth,[1]; Compound 1 50 + ketoconazole 25 μg/ml,-
same,Growth,[1]; Compound 1 50 + ketoconazole 50 μg/ml,-
same,Growth,[1]; Compound 1 50 + ketoconazole 100 μg/ml,-
same,Growth,[1]; Compound 1 50 + miconazole 0.39 μg/ml,+
same,Growth,[1]; Compound 1 50 + miconazole 0.78 μg/ml,+
same,Growth,[1]; Compound 1 50 + miconazole 50 μg/ml,-
same,Growth,[1]; Compound 1 50 + miconazole 100 μg/ml,-
same,Growth,[1]; Compound 1 100 + ketoconazole 0.1 μg/ml,+
same,Growth,[1]; Compound 1 100 + ketoconazole 25 μg/ml,-
same,Growth,[1]; Compound 1 100 + ketoconazole 50 μg/ml,-
same,Growth,[1]; Compound 1 100 + ketoconazole 100 μg/ml,-
same,Growth,[1]; Compound 1 100 + miconazole 0.39 μg/ml,+
same,Growth,[1]; Compound 1 100 + miconazole 0.78 μg/ml,+
same,Growth,[1]; Compound 1 100 + miconazole 50 μg/ml,-
same,Growth,[1]; Compound 1 100 + miconazole 100 μg/ml,-
same,influence over growth curve,[2],fungistatic or fungicidal effects were enhanced
same,MIC,[3],> 100 µg/mL
same,effect of combined use with miconazole on inhibitory ring,"[4]; Compound 1 disk on periphery of incomplete inhibitory ring of miconazole disk, FIG. 2",a portion of the incomplete inhibitory ring is completely inhibited
same,"effects of combined use, Compound 1 with ketoconazole",[4]; FIG. 3,remarkable effects of the combined use
same,death,ICR male mice,no instance of death
same,synergistic effects of combined use with non-azole antifungal agents,[5],no synergistic effects were observed
